Data as given in patent US20260174874A1, “INSULIN DERIVATIVES” (USTAV ORGANICKE CHEMIE A BIOCHEMIE AKADEMIE VED CR, V. V. I., priority 2022, published 2026).
Several values for one entry are separate records, joined by “and”; a condition that tells them apart may be missing. Equal entries are not always repeated. Where two headings read alike, the source gives them in different places. Marks after values point to notes of the source that are not given here.

Columns and labels:
[1] = target: IR-A (Homo sapiens, UniProt P06213); conditions: published; (Kd of native hormone/Kd of derivative) × 100; cited from earlier work
IR-A, sequence (P06213 28-1370 isoform P06213-2 limits assumed): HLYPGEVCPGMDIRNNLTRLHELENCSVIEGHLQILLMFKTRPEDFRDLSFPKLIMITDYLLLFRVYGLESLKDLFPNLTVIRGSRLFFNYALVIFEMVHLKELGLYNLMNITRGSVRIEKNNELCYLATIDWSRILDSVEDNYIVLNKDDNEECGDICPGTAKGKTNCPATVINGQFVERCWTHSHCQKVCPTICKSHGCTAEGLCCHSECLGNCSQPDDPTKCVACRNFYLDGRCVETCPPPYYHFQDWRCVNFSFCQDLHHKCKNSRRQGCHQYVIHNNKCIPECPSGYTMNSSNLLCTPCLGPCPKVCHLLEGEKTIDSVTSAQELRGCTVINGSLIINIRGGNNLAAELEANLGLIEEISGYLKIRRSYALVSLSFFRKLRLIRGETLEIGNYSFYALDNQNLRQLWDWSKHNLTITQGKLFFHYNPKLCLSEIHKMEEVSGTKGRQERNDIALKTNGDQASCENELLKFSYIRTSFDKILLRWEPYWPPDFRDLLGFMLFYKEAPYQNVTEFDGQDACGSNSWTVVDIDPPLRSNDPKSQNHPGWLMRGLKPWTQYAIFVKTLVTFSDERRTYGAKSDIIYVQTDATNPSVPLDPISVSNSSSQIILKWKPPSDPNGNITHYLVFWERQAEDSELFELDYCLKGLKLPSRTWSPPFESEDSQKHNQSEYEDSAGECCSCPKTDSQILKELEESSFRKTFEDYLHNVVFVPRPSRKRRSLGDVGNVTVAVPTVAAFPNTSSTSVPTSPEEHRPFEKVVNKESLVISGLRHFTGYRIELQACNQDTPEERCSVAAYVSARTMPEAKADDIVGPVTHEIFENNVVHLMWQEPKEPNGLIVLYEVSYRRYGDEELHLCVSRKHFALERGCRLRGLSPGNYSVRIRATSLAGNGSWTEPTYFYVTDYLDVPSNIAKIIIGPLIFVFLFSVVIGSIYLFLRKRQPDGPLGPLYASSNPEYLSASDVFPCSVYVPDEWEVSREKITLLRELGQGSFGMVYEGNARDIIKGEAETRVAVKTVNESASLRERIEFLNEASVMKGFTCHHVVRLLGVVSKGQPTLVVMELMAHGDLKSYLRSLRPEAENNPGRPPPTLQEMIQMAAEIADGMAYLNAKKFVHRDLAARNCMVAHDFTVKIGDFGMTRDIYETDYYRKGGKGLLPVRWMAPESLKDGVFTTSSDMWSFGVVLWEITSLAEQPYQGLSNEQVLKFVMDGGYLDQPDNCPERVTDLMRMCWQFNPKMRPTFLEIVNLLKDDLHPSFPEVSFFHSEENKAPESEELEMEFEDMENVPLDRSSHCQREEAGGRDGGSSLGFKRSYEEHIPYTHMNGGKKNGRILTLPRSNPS
IR-A, sequence (P06213 763-1382 limits assumed): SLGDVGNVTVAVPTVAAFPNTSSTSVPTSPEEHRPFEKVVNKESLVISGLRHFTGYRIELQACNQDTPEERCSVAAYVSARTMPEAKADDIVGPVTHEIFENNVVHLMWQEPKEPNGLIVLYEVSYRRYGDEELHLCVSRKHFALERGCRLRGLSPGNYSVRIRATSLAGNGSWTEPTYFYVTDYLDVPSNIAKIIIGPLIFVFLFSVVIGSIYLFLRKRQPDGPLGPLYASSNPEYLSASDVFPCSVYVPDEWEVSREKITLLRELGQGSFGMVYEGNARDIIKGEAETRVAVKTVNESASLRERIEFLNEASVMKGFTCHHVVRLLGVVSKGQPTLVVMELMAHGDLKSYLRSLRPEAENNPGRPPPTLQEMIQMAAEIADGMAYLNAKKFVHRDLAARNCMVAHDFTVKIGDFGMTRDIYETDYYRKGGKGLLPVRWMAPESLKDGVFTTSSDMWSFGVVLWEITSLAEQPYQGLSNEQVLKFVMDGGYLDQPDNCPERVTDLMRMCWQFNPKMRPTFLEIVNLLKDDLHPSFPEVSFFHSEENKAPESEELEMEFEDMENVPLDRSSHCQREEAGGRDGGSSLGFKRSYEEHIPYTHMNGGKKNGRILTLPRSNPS

[2] = target: T1, IGF-1R (Homo sapiens, UniProt P08069); conditions: cited from earlier work
[3] = target: IR-B (Homo sapiens, UniProt P06213); conditions: published; (Kd of native hormone/Kd of derivative) × 100; cited from earlier work
IR-B, sequence (P06213 28-758 limits assumed): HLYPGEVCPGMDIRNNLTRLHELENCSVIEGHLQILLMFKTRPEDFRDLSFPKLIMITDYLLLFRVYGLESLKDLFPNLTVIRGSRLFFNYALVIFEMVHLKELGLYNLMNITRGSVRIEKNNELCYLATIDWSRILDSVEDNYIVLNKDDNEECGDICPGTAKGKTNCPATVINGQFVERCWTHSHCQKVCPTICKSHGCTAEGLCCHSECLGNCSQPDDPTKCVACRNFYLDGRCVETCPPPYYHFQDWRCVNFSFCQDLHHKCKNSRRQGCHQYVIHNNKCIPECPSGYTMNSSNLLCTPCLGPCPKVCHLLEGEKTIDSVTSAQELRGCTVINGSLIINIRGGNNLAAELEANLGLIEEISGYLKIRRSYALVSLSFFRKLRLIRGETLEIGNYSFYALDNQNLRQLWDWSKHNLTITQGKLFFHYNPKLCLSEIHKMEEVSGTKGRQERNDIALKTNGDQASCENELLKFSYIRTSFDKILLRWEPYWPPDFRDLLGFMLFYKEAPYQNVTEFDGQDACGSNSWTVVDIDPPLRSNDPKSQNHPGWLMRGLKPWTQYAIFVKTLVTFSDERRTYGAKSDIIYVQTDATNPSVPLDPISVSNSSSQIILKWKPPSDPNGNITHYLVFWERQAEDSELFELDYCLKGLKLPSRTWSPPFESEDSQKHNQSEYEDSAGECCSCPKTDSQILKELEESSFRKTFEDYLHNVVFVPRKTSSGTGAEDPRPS
IR-B, sequence (P06213 763-1382 limits assumed): as the sequence (P06213 763-1382 limits assumed) above

[4] = tested on: SH-SY5Y cells; assay: Protection of SH-SY5Y cells against methylglyoxal toxicity (MTT assay); format: cell-based; conditions: methylglyoxal 1.5 mmol·l-1, SY5Y cells
[5] = target: T1, IGF-1R; assay: competition with 125I-IGF-1 on mouse fibroblasts transfected with human IGF-1R; relative to human insulin
[6] = published, (Kd of native hormone/Kd of derivative) × 100

IN-ML-15 (GluB10, D-HisB24, GlyB31, TyrB32-insulin) (ligand), sequence (chain): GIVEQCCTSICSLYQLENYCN
IN-ML-15 (GluB10, D-HisB24, GlyB31, TyrB32-insulin) (ligand), sequence (chain): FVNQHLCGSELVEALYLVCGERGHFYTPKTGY

Compound | Relative binding affinity for IR-A (%) [1] [%] | Relative binding affinity for IGF-1R (%) [2, 6] | Relative binding affinity for IR-B (%) [3] [%] | also measured
D-AlaB24-insulin | 150 | – | – | –
D-HisB24, GlyB31, TyrB32-insulin | 251 | 12% and 12.4% | 338 | –
D-HisB24-insulin | 280 | 1.0% | 250 | –
CC(=O)C=O [Methylglyoxal, methylglyoxal] | – | – | – | amount of cells grown in the wells compared with the control [4]: 50-60%
D-PheB24-insulin | 180 | – | – | –
GluB10-insulin | 407 | – | – | –
AspB10-insulin | 206 | – | – | Relative binding affinity for IGF-1R (%) ([2]; Converted from Schaffer data): 0.2* %
GlyB31, TyrB32-insulin | 162 | 0.27% | 310 | –
D-ProB24-insulin | 1.3 | – | – | –
IN-ML-15 (GluB10, D-HisB24, GlyB31, TyrB32-insulin) (ligand) | – | – | – | times more potent than insulin [5]: 790 times
